Data set [1] concerns liver hepatocellular carcinoma cell line Mahlavu. The data set can be described thus: MTS analysis, growth inhibition (GI50). It counts as cell-based. Particulars: read-out: GI50, Mahlavu liver hepatocellular carcinoma cell line.
The subject of data set [2] is liver hepatocellular carcinoma cell line SNU-449. Put plainly: MTS analysis, growth inhibition (GI50). It is filed as cell-based. To be noted: for GI50: Homo sapiens.
Data set [3] has as its system wild-type liver hepatocellular carcinoma cell line SNU-499. The data set can be described thus: MTS assay cell viability IC50. It counts as cell-based.
In data set [4] the test system is Sorafenib-drug resistance-liver hepatocellular carcinoma cell line SNU-499. The data set can be described thus: MTS assay cell viability IC50. It is filed as cell-based. As to the method: (§1) In order to look for the biomarkers of drug resistance for liver hepatocellular carcinoma, liver hepatocellular carcinoma cell line Hep3B and SNU-449 were continually cultured in an environment with Sorafenib, and the concentration of Sorafenib was increased gradually. Specifically, broth containing 3.5 μM to 10.8 μM Sorafenib was used as a starting concentration (compared to the IC50 of the cell), and the concentration increased 0.5 μM every week until the Sorafenib-drug resistance-liver hepatocellular carcinoma cell line was established. […] With the same experimental procedures as described above, the Sorafenib-drug resistance-cell line was also cultured in a cell broth containing Regorafenib, and the cell viability was tested by MTS assay.

Data set [5] deals with wild-type liver hepatocellular carcinoma cell line Hep3B. Put plainly: MTS assay cell viability IC50. It is filed as cell-based. To be noted: Homo sapiens. As to the method:
as §1

For data set [6], the system named is Sorafenib-drug resistance-liver hepatocellular carcinoma cell line Hep3B. Put plainly: MTS assay cell viability IC50. It counts as cell-based. Particulars: Homo sapiens. How it is done:
as §1

Data set [7] deals with Hepatitis B virus-induced ROS in Huh-7 cells. The data set can be described thus: Removal of HBV-induced ROS, DHE fluorescence. It counts as cell-based, human. Particulars: Huh-7 transfected with pGEM C12, 5 μM PCH1152, 10 μM NAC. As to the method:
To examine the effect of PCH1152, NAC or the combination thereof on removing HBV-induced ROS, the Huh-7 cells were remained untreated, or treated with 5 μM PCH1152, 10 μM NAC or 5 μM PCH 1152 plus 10 μM NAC. The ROS was examined by DHE fluorescence, and the difference between each group was compared by Tukey's Multiple Comparison Test.

Data set [8] concerns liver hepatocellular carcinoma cell line SNU-449. The data set can be described thus: MTS assay cell growth, selectivity test. It is filed as cell-based. To be noted: SNU-449 vs THLE-2, MTS assay.
Data set [9] concerns cancer cells. To be noted: background statement; cited from earlier work.
Data set [10] has as its system SNU-449 liver hepatocellular carcinoma cell line. Put plainly: Expression of ABCC2, Twist and Mcl-1 after treatment. To be noted: 2.5 μM, 64 hours. It is filed as cell-based. From the text:
(§2) The process of trans-differentiating epithelial cells into motile mesenchymal cells is called epithelial-mesenchymal transition (EMT). EMT is indispensable in development, wound healing and stem cell behavior, and may induce fibrosis and carcinogenesis pathologically. In addition, EMT plays an important role in liver fibrosis, liver cirrhosis and liver hepatocellular carcinoma. […] Moreover, EMT may increase the anti-apoptosis effect, which will result in the development of drug resistance in cancer treatment, and induce the development of stemness of the cancer cells, as well as increase the number of cancer stem cells. The cancer stem cell is one of the important factors in the progression, recurrence, metastasis and drug resistance of the cancer. There is an evidence that in the samples of the liver hepatocellular carcinoma patients with poor prognosis, the overexpressions of Twist and Snail were observed. […] The results above represent that isothiocyanate structural modified compound of the present disclosure may prevent liver carcinogenesis and the growth, invasion, metastasis, progression and recurrence of liver hepatocellular carcinoma via inhibiting epithelial-mesenchymal transition, anti-apoptosis and/or inhibiting drug resistance.

Data set [11] concerns Mahlavu liver hepatocellular carcinoma cell line. Described as above. It is filed as cell-based. To be noted: 2.5 μM, 64 hours.
Excerpt: as §2

Data set [12] has as its system SNU-449 liver hepatocellular carcinoma cell line. Put plainly: Western blot, apoptosis and ABCC2/Mcl-1/Twist expression. It is filed as cell-based. To be noted: low concentration.
Data set [13] concerns liver hepatocellular carcinoma cell line with Nexavar drug resistance. The data set can be described thus: Protein expression and apoptosis in drug-resistant cell line. It is filed as cell-based. From the text: WT: wild-type liver hepatocellular carcinoma cell line. R: Nexavar-drug resistance-liver hepatocellular carcinoma cell line.
After treating liver hepatocellular carcinoma cell line with Nexavar drug resistance by PCH1130 or PCH1152, the expressions of molecules such as USP22, ABCC1, ABCC2 and Twist in liver hepatocellular carcinoma may be decreased, and the expressions of cleaved Caspase-8 and PARP may be increased, which induced the apoptosis of liver hepatocellular carcinoma cells.

The subject of data set [14] is mouse xenograft model of liver hepatocellular carcinoma. Put plainly: Safety test, median lethal dose (LD50), intravenous injection. It is filed as in vivo. As to the method:
(§3) The mouse xenograft model of liver hepatocellular carcinoma was administered with different concentrations of PCH1152 or P1130 via intravenous injection, and the median lethal dose (LD50) was calculated by the number of death and dosage.

Experiment in data set [15]: as above
It is filed as in vivo. Particulars: in vivo, mouse. How it is done: as §3

The subject of data set [16] is human normal liver cell line THLE-2. Put plainly: Western blot, apoptosis and ABCC2/Mcl-1/Twist expression. It counts as cell-based. Particulars: low concentration.
In data set [17] the test system is SNU-449 liver hepatocellular carcinoma cell line. Put plainly: Western blot of apoptosis markers (cleaved caspase 8, cleaved PARP). It counts as cell-based. Particulars: 0.3 μM, 0, 24, 48 and 72 hours. As to the method: SNU-449 liver hepatocellular carcinoma cell line was treated by 0.3 μM isothiocyanate structural modified compounds P1130 and PCH1152, and natural isothiocyanate compound PEITC, and the control group was treated by DSMO. After extracting the proteins in the cells at different time points, such as 0, 24, 48 and 72 hours, analysis and comparison were performed by using western blot. […] The results represent that the two structural modified compounds described above effectively promoted the apoptosis of the liver hepatocellular carcinoma cells (FIG. 1).

The mark [18] stands for this setting: SNU-449, MTS analysis, read-out: GI50, SNU-449 liver hepatocellular carcinoma cell line.
The mark [19] stands for this setting: read-out: The IC50 of Sorafenib, wild-type liver hepatocellular carcinoma cell line.
[20] abbreviates: read-out: The IC50 of Regorafenib, wild-type liver hepatocellular carcinoma cell line.

SMILES strings stand for the structures. Read-outs that look alike come from different tables or passages of the source.

These results are taken from patent US20240139142A1, “METHOD FOR PREVENTING OR TREATING LIVER DISEASE” (priority 2022, published 2024).

In the case of `CNC(=O)c1cc(Oc2ccc(NC(=O)Nc3ccc(Cl)c(C(F)(F)F)c3)cc2)ccn1` [Sorafenib], the GI50 was determined as 3.58 µM in data set [1] (MTS analysis) and 2.34 µM in [2] (setting [18]). Moreover, the half-maximal inhibitory concentration (IC50) in [3] (setting [19]) was 7.89 µM; in data set [4] (SNU-499, read-out: The IC50 of Sorafenib, drug resistance-liver hepatocellular carcinoma cell line) it was 14.2 µM; in [5] (setting [19]), 3.8 µM; in [6] (read-out: The IC50 of Sorafenib, drug resistance-liver hepatocellular carcinoma cell line) it was 10.9 µM.
`CC(=O)N[C@@H](CS)C(=O)O` [NAC, N-acetylcysteine, reference compound]: in data set [7], the “HBV-induced ROS increasement” value was “significantly reduce”.
As for `COc1cccc2c1C(=O)c1c(O)c3c(c(O)c1C2=O)C[C@@](O)(C(=O)CO)C[C@@H]3O[C@H]1C[C@H](N)[C@H](O)[C@H](C)O1` [Doxorubicin, reference compound], in [8], the “selectivity between liver hepatocellular carcinoma cell and normal liver cell” value is “did not have selectivity”.
Consider `S=C=NCc1ccccc1` [BITC, benzyl isothiocyanate], for which the GI50 in data set [1] (MTS analysis) was determined as 3.84 µM; in data set [2] (setting [18]), 9.58 µM. Further, in [9], the “dose needed to have the inhibiting effect on cancer cells” value is given as around 10 mM.
As to `COc1ccc(CCN=C=S)cc1` [P1130], the GI50 in data set [1] came out at 1.52 µM. Further, in [2] (SNU-449, read-out: GI50, SNU-449 liver hepatocellular carcinoma cell line), the GI50 was determined as 0.64 µM. Further, in [2] (compared to natural isothiocyanate compounds BITC or PEITC), the “increase of the ability of inhibiting the growth of the liver hepatocellular carcinoma cell line” value was 12 times. For the same compound, the “expressions of ABCC2, Twist and Mcl-1” value in [10] was “inhibition”. Further, the “expressions of ABCC2, Twist and Mcl-1” value in data set [11] is recorded as “inhibition”. Besides, in [12], the “apoptosis of liver hepatocellular carcinoma cell line” value is given as “promote apoptosis”; the “expressions of ABCC2, Mcl-1 and Twist” value was “inhibit the expressions”. Also, in data set [13], the “effect on drug resistance in liver hepatocellular carcinoma” value was “reversing the drug resistance”; the “expressions of USP22, ABCC1, ABCC2 and Twist” value was “decreased”; the “expressions of cleaved Caspase-8 and PARP” value is “increased”. In data set [14], the “toxicity relative to existing anticancer drug, e.g. Taxotere” value is given as “comparable”. This compound also came in with an LD50 in data set [15] of 100 to 300 mg/kg. Moreover, in data set [16], the “apoptosis promotion and inhibition of ABCC2, Mcl-1, Twist in human normal liver cell line” value was “no such effect”. Besides, in [17], the “expression levels of cleaved caspase 8 and cleaved PARP” value is recorded as “significantly increased”.
Consider `CNC(=O)c1cc(Oc2ccc(NC(=O)Nc3ccc(Cl)c(C(F)(F)F)c3)c(F)c2)ccn1` [Regorafenib], for which the GI50 was 5 µM in data set [1] (MTS analysis) and 4.54 µM in data set [2] (setting [18]). For the same compound, the IC50 in data set [3] (setting [20]) stood at 3.66 µM; in data set [4] (SNU-499, Sorafenib-resistant, read-out: The IC50 of Regorafenib, drug resistance-liver hepatocellular carcinoma cell line), 14.5 µM; in data set [5] (setting [20]) it was 4.28 µM; in data set [6] (Sorafenib-resistant, read-out: The IC50 of Regorafenib, drug resistance-liver hepatocellular carcinoma cell line), 8.33 µM.
For the compound `S=C=NCCc1ccccc1` [PEITC, phenylethyl isothiocyanate, reference compound], the GI50 in data set [1] (MTS analysis) is 9.59 µM; in data set [2] (setting [18]), 7.58 µM. In data set [17], the “expression levels of cleaved caspase 8 and cleaved PARP” value is listed as “only slightly increased”.
